Experimental data taken from PubChem BioAssay AID179 (DTP/NCI, 2004).
Several values for one entry are separate records, joined by “and”; a condition that tells them apart may be missing. Equal entries are not always repeated. Activity calls are given as the source filed them.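 The calls were made as follows: active = compounds giving half or more protection of infected cells from virus-caused growth loss, again on retest; inactive = the rest.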

System: CEM cells HIV-1 protection, formazan growth assay
Experiment: NCI AIDS Antiviral Assay
Settings: for IC50: measured here: growth of uninfected CEM cells
Method in brief: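 Human CEM cells, uninfected and HIV-1-infected, exposed to five drug concentrations; growth measured by soluble formazan assay and scored as percent protection from infection, with protecting compounds retested.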

| Structure (SMILES) | outcome | EC50 [µM] | IC50 |
| --- | --- | --- | --- |
| Cc1ccc(-c2c(N)nc(NC#N)nc2CCC(=O)Nc2ccccc2[N+](=O)[O-])cc1 | inactive |  |  |
| COc1cccc(-c2[nH]c3cc4c(cc3c(=O)c2C(=O)O)OCO4)c1 |  | > 200 | 13.8 µM |
| C[Si](C)(C)[C@@]1([Se]c2ccccc2)CC[C@@H]1C(=O)c1ccccc1 |  | > 13.5 | > 13.5 µM |
| O=C1c2cc3c(cc2CC12Cc1ccc4c(c1C2=O)CCC4)CCC3 (centres undefined) |  | > 200 | > 200 µM |
| CC1C2CC=CC(=O)[C@@]2(C)CCC12OCCO2 (some centres undefined) | inactive |  |  |
| CCN1C[C@]2(COC)CCC(OC)C34[C@@H]5C[C@@H]6C(O)[C@@H]5[C@](O)(C[C@@H]6OC)[C@@H](C[C@@H]32)[C@H]14 (some centres undefined) | inactive |  |  |
| COc1ccc(-c2c3c(n(C4OC(COC(C)=O)C(OC(C)=O)C(OC(C)=O)C4OC(C)=O)c(=S)c2C#N)CCCC3)cc1 (centres undefined) |  | > 200 | 89.1 µM |
| ON=C1CCC(c2ccccc2)CC1 (centres undefined) | inactive |  |  |
| O=[N+]([O-])/C=C/c1c(Cl)cccc1Cl | inactive |  |  |
| CCOC(=O)/C(C)=C(/O)C(=O)OCC |  | 214 | 1120 µM |
| O=C1NC2C(=O)N(Cc3ccccc3)C(=O)C2N1 (centres undefined) |  | > 29.5 | > 29.5 µM |
| N[C@H](C(=O)O)[C@@H]1CC(Cl)=NO1 |  | > 15.1 | > 15.1 µM |
| CCCCCCCCCC1CC(=O)OC2=C1C(=O)CCC2 (centres undefined) |  | > 46.8 | > 46.8 µM |
| CC(C)CCC[C@@H](C)C1CCC2[C@@H]3CCC4C[C@@H](NS(C)(=O)=O)CC[C@]4(C)C3CC[C@@]21C (some centres undefined) |  | > 200 | > 200 µM |
| CN=c1nc2n3c(cccc3n1)NC(C)=N2 |  | > 100 | > 100 µM |
| CN1CCCNCCN(CCc2ccccn2)CCCN(C)CC1 |  | > 132 | > 132 µM |
| O=C1c2c(O)ccc(O)c2C(=O)c2c(NCCNCCO)ccc(NCCNCCO)c21 |  | > 0.708 | 0.00186 µM and 0.00251 µM |
| CC(=O)Nc1ccc2c(c1)C(c1ccccc1)=NCC(=O)N2 |  | > 200 | 55 µM |
| CC1=C(C(=O)Nc2ccccc2C)C(c2ccc(C3C(C(=O)Nc4ccccc4C)=CNC=C3C(=O)Nc3ccccc3C)cc2)C(C(=O)Nc2ccccc2C)=C(C)N1 | inactive |  |  |
| Cc1ccc(-c2cc(-c3ccco3)c(C#N)c(=S)[nH]2)cc1 |  | > 200 | 120 µM |
| Cc1ccccc1Nc1nc2ccccc2nc1NS(=O)(=O)c1ccccc1 |  | > 200 | > 200 µM |

| Structure (SMILES) | outcome | EC50 [µM] | IC50 |
| --- | --- | --- | --- |
| CC1=C(C)CC(C#N)(C#N)C(C#N)(C#N)C1 |  | > 200 | 19.1 µM |
| CC1OC(OC2C(O[C@H]3CC[C@@]4(C)C(=CC[C@H]5[C@@H]6C[C@@H]7O[C@]8(CC[C@H](C)CN8)[C@@H](C)[C@@H]7[C@@]6(C)CC[C@@H]54)C3)OC(CO)C(O)C2OC2OC(CO)C(O)C(O)C2O)C(O)C(O)C1O (some centres undefined) | inactive |  |  |
| O=C1Nc2cc3c(cc2C(=O)N2C/C(=N/O)CC12)OCO3 (centres undefined) |  | > 324 | 191 µM |
| CN(C)CC(CC1=C(CC(CN(C)C)N(C)C)CCC1)N(C)C (centres undefined) | inactive |  |  |
| COc1cc2c(cc1OC)C1[C@@H](c3ccccc3)OCN1CC2 (some centres undefined) | inactive |  |  |
| Nc1nc(Cl)c(N)c(NCC2(CO)CC(O)C2)n1 (centres undefined) |  | > 200 | > 200 µM |
| Cc1cc(C)nc(NS(=O)(=O)c2ccc(NC(=O)c3cccc4c(Nc5ccc(S(=O)(=O)N=C(N)N)cc5)c5ccc(Cl)cc5nc34)cc2)n1 |  | > 49 | > 49 µM |
| O=C(Nc1ccccc1)[C@H](O)[C@@H](O)C(=O)Nc1ccccc1 |  | > 60.3 | 49 µM |
| COc1ccc(/C=C/C(=O)c2sc(-n3nc(-c4ccccc4)cc3-c3ccccc3)nc2C)cc1 |  | > 11 | > 11 µM |
| O=C(N/N=C\c1cccc(/C=N\NC(=O)Nc2ccc(N=Nc3ccccc3)cc2)n1)Nc1ccc(N=Nc2ccccc2)cc1 |  | > 200 | 39.8 µM |
| Cc1c(Cl)c(=O)oc2c3c(ccc12)OC(C)(C)[C@H](OC(=O)C12CCC(C)(C(=O)O1)C2(C)C)[C@@H]3OC(=O)C12CCC(C)(C(=O)O1)C2(C)C (some centres undefined) |  | 0.282 | 5.62 µM |
| COc1ccc(-c2c(C#N)c(S)n(NS(=O)(=O)c3ccccc3)c(=O)c2C#N)cc1 |  | > 200 | 12.6 µM |
| c1ccc(SC2=C(Sc3ccccc3)CC2)cc1 |  | > 200 | 89.1 µM |
| Cc1cc(=O)[nH]c2cc(NC(=O)C(CCCN=C(N)N)NC(=O)OCc3ccccc3)ccc12 (centres undefined) |  | > 200 | > 200 µM |
| OC1(c2ccccc2)Oc2ccccc2C(c2ccccc2)C1c1ccccc1 (centres undefined) |  | > 200 | 9.55 µM |
| O=C1Sc2ccccc2C(=O)N2CCSC12 (centres undefined) |  | 126 | > 200 µM |
| O=C(O)[C@H]1CSCN1C(=O)c1ccccc1SSc1ccccc1C(=O)N1CSC[C@H]1C(=O)O |  | > 200 | > 200 µM |
| CC[C@@]1(OP(=O)(O)O)C(=O)OCc2c1cc1n(c2=O)Cc2cc3ccccc3nc2-1 |  | > 10 | 0.0263 µM |
| C[C@]12CCC(=O)C(O)=C1CC[C@@H]1C2CC[C@]2(C)Nc3c(cnn3-c3ccccc3)CC12 (some centres undefined) | inactive |  |  |
| Cc1cc(CS(=O)(=O)/C=C/c2ccccc2[N+](=O)[O-])c(CS(=O)(=O)/C=C/c2ccccc2[N+](=O)[O-])cc1C |  | > 11.5 | > 11.5 µM |
| CC(CCC(N)=O)(CCC(N)=O)[N+](=O)[O-] |  | > 200 | > 200 µM |
